Data published in PMC5303205, “Comparative studies on the multi-component pharmacokinetics of Aristolochiae Fructus and honey-fried Aristolochiae Fructus extracts after oral administration in rats” (BMC Complementary and Alternative Medicine, 2017).
Where two headings read alike, the source gives them in different places.

Experiments:
[1] = Multi-component pharmacokinetics of AAs in rats after oral administration of AF and HAF extracts (HPLC-MS/MS of plasma); design: species or system Sprague–Dawley (SD) rats; details: Sprague-Dawley, rat, in vivo
Experimental: An aliquot (100 μl) of rat plasma was spiked with 10.0 μL IS, and vortexed with 300 μL acetic ether for 10 s before the supernatant was transferred into centrifuge tube. The extraction was repeated with 200 μL acetic ether. The combined organic layer was evaporated to dryness under a gentle stream of nitrogen at RT. The residue was resolved in 100 μL methanol and centrifuged at 15,800 × g for 10 min. The supernatant was used for HPLC-MS/MS analysis.
Chromatographic separation was performed by an Acquity C18 column (4.6 × 100 mm,3.5 μm) (Agilent Technologies, USA). The mobile phase was composed of water (containing 10 mM ammonium formate and formic acid, pH 3.0) (solvent A) and ACN (solvent B). The gradient profile of B was: 0–10 min, 35–38%; 10–11 min, 38– 60%; 11–17 min, 60–35%B; 17–18 min, 35%. The flow rate was kept at 0.5 mL/min. The column oven was set at 30 °C and the injection volume was 10 μL.
The mass spectrometer was operated in the positive ion electrospray mode with multiple reaction monitoring (MRM). The optimal MS parameters were set at the following parameters: a desolvation gas temperature of 450 °C, desolvation gas flow of 10 L/min, a nebulizer gas of 40 psi and a capillary voltage of 4000 V. The mass spectrometry conditions of AA I, AA II, AA C, AA D, 7-OH AA I and IS are summarized in Additional file 1: Table S1.
The rats were randomly divided into 6 groups (low, middle and high doses of AF and HAF; n = 6). After a week of acclimation, the animals were fasted for 12 h with free access to water. Then, AF and HAF extracts were administered to the rats. The extracts were suspended in 0.5% CMC–Na solution, and the oral doses (according to AA I in the extracts) were 3.0 mg/kg, 8.0 mg/kg and 15.0 mg/kg, respectively.
Blood samples were collected from the ocular vein using dried heparinized tubes at 0, 0.083, 0.17, 0.33, 0.50, 0.67, 0.83, 1, 2, 4, 6, 8, 10, 12 and 24 h from the start. The animals received fluid replacement (sterile isotonic saline) after every two samplings since the fifth collecting. The samples were then immediately centrifuged at 3100 × g for 10 min. The plasma obtained was frozen and stored at –20 °C until analysis.
All statistical analyses were performed using the SPSS 11.0 software (Chicago, USA). P values <0.05 were considered statistically significant. Pharmacokinetic analysis was performed using the proprietary DAS 3.0 software (Mathematical Pharmacology Professional Committee of China, Shanghai, China).
After the oral administration of AF and HAF extracts, rat plasma samples were prepared and analyzed as described above. Five main AAs can be detected in rat blood with the proposed HPLC-MS/MS method. The mean pharmacokinetic parameters of five AAs in AF and HAF are summarized in Tables 4, 5 and Additional files 5, 6, 7: Tables S4-S6. The maximum concentration (C max) was the experimentally-observed value. The other pharmacokinetic parameters of the five analytes were fitted by DAS 3.0 software.

[2] = Stability of AAs in rat plasma (QC samples, HPLC-MS/MS); format: in vitro ADME; details: n = 5; for Short-term stability (RSD/%): fresh rat plasma at room temperature for 24 h before sample preparation; for Post-preparation stability (RSD/%): prepared rat plasma samples at room temperature for 24 h; for Long-term stability (RSD/%): rat plasma stored at –20 °C for 14 days; for Freeze-thaw stability (RSD/%): rat plasma, three freeze-thaw cycles (–20 °C 24 h, thawed at room temperature)
Experimental: The QC samples were assayed under several different conditions to evaluate the stability of AAs in rat plasma. The freeze-thaw stability of the analyte was determined over three freeze-thaw cycles. In each freeze-thaw cycle, the samples were frozen and stored at –20 °C for 24 h, then thawed at room temperature. To evaluate the long-term stability of AAs, the plasma samples were stored at –20 °C for 14 days. For the short-term stability, fresh plasma samples were kept at room temperature for 24 h before the sample preparation. After keeping the samples at room temperature for 24 h, post-preparation stability was tested. Stability was evaluated by comparing the mean concentration of the stored samples with the mean concentration of those prepared freshly. The stability data were acceptable when the bias was within ±15% of the actual value.

[3] = 3 mg/kg, AF extract, low dose (3.0 mg/kg as AA I), analyte dose mg/kg: AA I 3.0, AA II 0.21, AA C 1.42, AA D 1.60, 7-OH AA I 2.33, n = 6
[4] = 3 mg/kg, HAF extract, low dose (3.0 mg/kg as AA I), analyte dose mg/kg: AA I 3.0, AA II 0.26, AA C 1.53, AA D 1.51, 7-OH AA I 2.48, n = 6
[5] = 8 mg/kg, AF extract, mid dose (8.0 mg/kg as AA I), analyte dose mg/kg: AA I 8.0, AA II 0.56, AA C 3.78, AA D 4.26, 7-OH AA I 6.22, n = 6
[6] = 8 mg/kg, HAF extract, mid dose (8.0 mg/kg as AA I), analyte dose mg/kg: AA I 8.0, AA II 0.69, AA C 4.09, AA D 4.03, 7-OH AA I 6.62, n = 6
[7] = 15 mg/kg, AF extract, high dose (15.0 mg/kg as AA I), analyte dose mg/kg: AA I 15.0, AA II 1.05, AA C 7.09, AA D 8.00, 7-OH AA I 11.66, n = 6
[8] = 15 mg/kg, HAF extract, high dose (15.0 mg/kg as AA I), analyte dose mg/kg: AA I 15.0, AA II 1.29, AA C 7.66, AA D 7.56, 7-OH AA I 12.41, n = 6
[9] = high QC conc ng/mL: AA I 1830, AA II 3200, AA C 2980, AA D 3680, 7-OH AA I 3280
[10] = low QC conc ng/mL: AA I 1.83, AA II 8.00, AA C 186.3, AA D 36.8, 7-OH AA I 82.0
[11] = middle QC conc ng/mL: AA I 457.5, AA II 400, AA C 372.5, AA D 460, 7-OH AA I 410

`COc1cccc2c1cc([N+](=O)[O-])c1c(C(=O)O)cc3c(c12)OCO3` [AA I] showed an AUC(0-inf) [1, 3] of 6080 ± 1260 ng·h/mL, a Cmax [1, 3] of 1700 ± 571 ng/mL and a Tmax [1, 3] of 0.5 ± 0.09 h. The CL/F ([1]; 3 mg/kg, AF extract, low dose (3.0 mg/kg as AA I), analyte dose mg/kg: AA I 3.0, AA II 0.21, AA C 1.42, AA D 1.60, 7-OH AA I 2.33, n = 6, read-out: CLz/F (converted)) was 9.5 mL/min/kg, the Vd/F ([1]; 3 mg/kg, AF extract, low dose (3.0 mg/kg as AA I), analyte dose mg/kg: AA I 3.0, AA II 0.21, AA C 1.42, AA D 1.60, 7-OH AA I 2.33, n = 6, read-out: Vz/F) was 2.85 ± 0.15 L/kg and the half-life ([1]; 3 mg/kg, AF extract, low dose (3.0 mg/kg as AA I), analyte dose mg/kg: AA I 3.0, AA II 0.21, AA C 1.42, AA D 1.60, 7-OH AA I 2.33, n = 6, read-out: t 1/2z (converted)) was 3.5 ± 0.5 h. The AUC(0-inf) [1, 4] was 5230 ± 896 ng·h/mL, the Cmax [1, 4] was 1070 ± 223 ng/mL and the Tmax [1, 4] was 0.39 ± 0.08 h. For the same molecule, the CL/F ([1]; 3 mg/kg, HAF extract, low dose (3.0 mg/kg as AA I), analyte dose mg/kg: AA I 3.0, AA II 0.26, AA C 1.53, AA D 1.51, 7-OH AA I 2.48, n = 6, read-out: CLz/F (converted)) was 9.83 mL/min/kg, the Vd/F ([1]; 3 mg/kg, HAF extract, low dose (3.0 mg/kg as AA I), analyte dose mg/kg: AA I 3.0, AA II 0.26, AA C 1.53, AA D 1.51, 7-OH AA I 2.48, n = 6, read-out: Vz/F) was 2.75 ± 0.24 L/kg and the half-life ([1]; 3 mg/kg, HAF extract, low dose (3.0 mg/kg as AA I), analyte dose mg/kg: AA I 3.0, AA II 0.26, AA C 1.53, AA D 1.51, 7-OH AA I 2.48, n = 6, read-out: t 1/2z (converted)) was 3.22 ± 0.46 h. The AUC(0-inf) [1, 5] was 12800 ± 1860 ng·h/mL, the Cmax [1, 5] was 3820 ± 450 ng/mL and the Tmax [1, 5] was 0.56 ± 0.09 h. It also gave a CL/F ([1]; 8 mg/kg, AF extract, mid dose (8.0 mg/kg as AA I), analyte dose mg/kg: AA I 8.0, AA II 0.56, AA C 3.78, AA D 4.26, 7-OH AA I 6.22, n = 6, read-out: CLz/F (converted)) of 10.8 mL/min/kg, a Vd/F ([1]; 8 mg/kg, AF extract, mid dose (8.0 mg/kg as AA I), analyte dose mg/kg: AA I 8.0, AA II 0.56, AA C 3.78, AA D 4.26, 7-OH AA I 6.22, n = 6, read-out: Vz/F) of 5.4 ± 0.48 L/kg and a half-life ([1]; 8 mg/kg, AF extract, mid dose (8.0 mg/kg as AA I), analyte dose mg/kg: AA I 8.0, AA II 0.56, AA C 3.78, AA D 4.26, 7-OH AA I 6.22, n = 6, read-out: t 1/2z (converted)) of 5.58 ± 0.65 h. The AUC(0-inf) [1, 6] was 8990 ± 1780 ng·h/mL, the Cmax [1, 6] was 2000 ± 313 ng/mL and the Tmax [1, 6] was 0.42 ± 0.08 h. The CL/F ([1]; 8 mg/kg, HAF extract, mid dose (8.0 mg/kg as AA I), analyte dose mg/kg: AA I 8.0, AA II 0.69, AA C 4.09, AA D 4.03, 7-OH AA I 6.62, n = 6, read-out: CLz/F (converted)) was 11.3 mL/min/kg, the Vd/F ([1]; 8 mg/kg, HAF extract, mid dose (8.0 mg/kg as AA I), analyte dose mg/kg: AA I 8.0, AA II 0.69, AA C 4.09, AA D 4.03, 7-OH AA I 6.62, n = 6, read-out: Vz/F) was 4.58 ± 0.37 L/kg and the half-life ([1]; 8 mg/kg, HAF extract, mid dose (8.0 mg/kg as AA I), analyte dose mg/kg: AA I 8.0, AA II 0.69, AA C 4.09, AA D 4.03, 7-OH AA I 6.62, n = 6, read-out: t 1/2z (converted)) was 4.72 ± 0.52 h. The AUC(0-inf) [1, 7] was 26800 ± 3260 ng·h/mL, the Cmax [1, 7] was 5890 ± 426 ng/mL and the Tmax [1, 7] was 0.69 ± 0.1 h. The CL/F ([1]; 15 mg/kg, AF extract, high dose (15.0 mg/kg as AA I), analyte dose mg/kg: AA I 15.0, AA II 1.05, AA C 7.09, AA D 8.00, 7-OH AA I 11.66, n = 6, read-out: CLz/F (converted)) was 14.5 mL/min/kg, the Vd/F ([1]; 15 mg/kg, AF extract, high dose (15.0 mg/kg as AA I), analyte dose mg/kg: AA I 15.0, AA II 1.05, AA C 7.09, AA D 8.00, 7-OH AA I 11.66, n = 6, read-out: Vz/F) was 7.13 ± 0.57 L/kg and the half-life ([1]; 15 mg/kg, AF extract, high dose (15.0 mg/kg as AA I), analyte dose mg/kg: AA I 15.0, AA II 1.05, AA C 7.09, AA D 8.00, 7-OH AA I 11.66, n = 6, read-out: t 1/2z (converted)) was 5.46 ± 0.53 h. The AUC(0-inf) [1, 8] was 11800 ± 1770 ng·h/mL, the Cmax [1, 8] was 3470 ± 352 ng/mL and the Tmax [1, 8] was 0.47 ± 0.08 h. It also gave a CL/F ([1]; 15 mg/kg, HAF extract, high dose (15.0 mg/kg as AA I), analyte dose mg/kg: AA I 15.0, AA II 1.29, AA C 7.66, AA D 7.56, 7-OH AA I 12.41, n = 6, read-out: CLz/F (converted)) of 12 mL/min/kg, a Vd/F ([1]; 15 mg/kg, HAF extract, high dose (15.0 mg/kg as AA I), analyte dose mg/kg: AA I 15.0, AA II 1.29, AA C 7.66, AA D 7.56, 7-OH AA I 12.41, n = 6, read-out: Vz/F) of 5.53 ± 0.52 L/kg and a half-life ([1]; 15 mg/kg, HAF extract, high dose (15.0 mg/kg as AA I), analyte dose mg/kg: AA I 15.0, AA II 1.29, AA C 7.66, AA D 7.56, 7-OH AA I 12.41, n = 6, read-out: t 1/2z (converted)) of 5.32 ± 0.54 h. The “Short-term stability (RSD/%)” value [2, 9] was 6.5%, the “Short-term stability (RSD/%)” value [2, 10] was 0.58% and the “Short-term stability (RSD/%)” value [2, 11] was 8.7%. For the same molecule, the “Post-preparation stability (RSD/%)” value [2, 9] was 4.5%, the “Post-preparation stability (RSD/%)” value [2, 10] was 0.65% and the “Post-preparation stability (RSD/%)” value [2, 11] was 2.0%. For the same molecule, the “Long-term stability (RSD/%)” value [2, 9] was 7.6%, the “Long-term stability (RSD/%)” value [2, 10] was 0.28% and the “Long-term stability (RSD/%)” value [2, 11] was 6.9%. The “Freeze-thaw stability (RSD/%)” value [2, 9] was 12.9%, the “Freeze-thaw stability (RSD/%)” value [2, 10] was 1.1% and the “Freeze-thaw stability (RSD/%)” value [2, 11] was 10.3%.
